Earlier results as cited in patent publication US20030180704A1, “Ice-controlling molecules and uses thereof” (priority 2002, published 2003).

System: Crithidia fasciculata
Details: different media; for ability to cryopreserve Crithidia fasciculata without toxicity: stored at -20 C

SMILES | ability to cryopreserve Crithidia fasciculata without toxicity | toxicity to Crithidia fasciculata (cryopreservation at -20 C)
OCCC(O)CO (stereo not shown) [1,2,4-butantriol] | potential outstanding cryoprotectants | –
OC1CCCC(O)C1 (stereo not shown) [1,3-cyclohexanediol] | – | toxic
OC1CCC(O)CC1 (stereo not shown) [1,4-cyclohexanediol] | potential outstanding cryoprotectants | –
CC(=O)NCCO [N-acetylethanolamine] | potential outstanding cryoprotectants | –
C[S+](C)[O-] [dimethylsulfoxide] | potential outstanding cryoprotectants | –
OCC(O)CO [glycerol] | best cryoprotectant | –
CC(O)CO (stereo not shown) [propylene glycol] | potential outstanding cryoprotectants | –
